In the experiment the target is T1, WT-TTR (Homo sapiens, UniProt P02766).
T1 construct: made in house
Nature of the experiment: Stagnant acid-mediated TTR aggregation (fibril formation) assay, turbidity at 340 nm. It is filed as biochemical. Particulars: for remaining activity at 100 µM / remaining activity at 50 µM: 72 h; for remaining activity at 100 µM / inhibition at 100 µM: pH 4.4, compound 100 μM, pH 4.4, 37° C.; for remaining activity at 100 µM: read-out: % FF; for inhibition at 100 µM: read-out: % Inhibition; for remaining activity at 50 µM: read-out: % FF at 50 μM. On the procedure: Stagnant Acid-Mediated TTR Aggregation Assay.
After 1 h, the samples were diluted with 0.5 ml of 200 mM sodium acetate buffer containing 100 mM KCl and 1 mM EDTA. Samples after mild vortexing were incubated at 37° C. for the desired amount of time without stirring to evaluate the efficacy of the inhibitors. The extent of aggregation was probed by turbidity measurements at 340 nm using Tecan GENios microplate reader. […] The extent of TTR fibril formation in the absence of inhibitor was defined to be 100%. […] All experiments were done in triplicate. […] The IC50 was determined by plotting mean of % inhibition vs log and fitted to sigmoid equation:
The experiments were conducted at 25° C. After 1 h, the samples were diluted with 0.5 mL of 200 mM sodium acetate buffer pH 4.4 containing 100 mM KCl and 1 mM EDTA, vortexed, and incubated at 37° C. for 72 h. […] The stoichiometry of the binding of the inhibitors was determined by HPLC as described by Green et al., N. S. Palaninathan, S, L, Sacchettini, J. e. […] Dissociation constant of binding of these compounds to TTR was determined by fluorescence titration, and data were fitted into the Adair equation for two bind mg.

The mark [1] stands for this setting: biphenyl ether 50 μM, WT-TTR 7.2 μM.

Where two headings read alike, the source gives them in different places.

For `CSC1=NSC2=NC(=O)/C(=C\c3ccc(O)cc3)C(=N)N12` [Compound C146-0184], where the note is “WT-TTR 7.2 μM”, the remaining activity at 100 µM was 72.7% and the inhibition – broadly, how much of the control response was suppressed – at 100 µM came to 27.3%.
As for `Cc1ccccc1C1=N/C(=C\c2sccc2C)C(=O)O1` [Compound 1989-9396], for the setting “WT-TTR 7.2 μM”, the remaining activity at 100 µM amounted to 115% and the inhibition at 100 µM turned out to be 0%.
Taken in the same sequence, the figures for `O=C(Nc1nnc[nH]1)c1c(Cl)ccc(Cl)c1Cl` [Compound 3232-0353] were 11.5% and 88.5%.
Taken in the same sequence, the figures for `CCC(=O)NC(c1ccc2c(c1)OCO2)c1cc(Cl)c2cccnc2c1O` (centres unmarked) [Compound K839-0017] were 41.9% and 58.1%.
Taken in the same sequence, the figures for `O=C1OC(/C=C/c2ccc(Cl)cc2Cl)=NC/1=C\c1cccs1` [Compound K088-1892] were 294% and 0%.
Take `O=C(O)C1CSC(c2ccc(O)cc2)N1` (centres unmarked) [Compound K085-0008]: under “WT-TTR 7.2 μM”, the remaining activity at 100 µM was found to be 120% and the inhibition at 100 µM came to 0%.
As to `CCN(CC)CCCN(Cc1ccco1)C(=S)Nc1ccc(OC)cc1` [Compound C087-0785], where the note is “WT-TTR 7.2 μM”, the remaining activity at 100 µM came to 107% and the inhibition at 100 µM was found to be 0%.
Taken in the same sequence, the figures for `Oc1ccc(-c2nc3ncccn3c2Nc2ccc(Cl)cc2)cc1` [Compound C239-0727] were 135% and 0%.
On to `Cc1nc2c(ccc3ccccc32)c(O)c1CN(C)Cc1ccccc1` [Compound 3453-1353], for which, where the note is “WT-TTR 7.2 μM”, the remaining activity at 100 µM stood at 105% and the inhibition at 100 µM is 0%.
Taken in the same sequence, the figures for `COc1ccc(C2NC(C(=O)O)CS2)cc1OC` (centres unmarked) [Compound K085-0007] were 129% and 0%.
Taken in the same sequence, the figures for `CSC1=NSC2=NC(=O)/C(=C\c3ccc(Cl)cc3)C(=N)N12` [Compound C146-0181] were 67.1% and 32.9%.
Taken in the same sequence, the figures for `O=C(NCc1ccco1)c1cc(Sc2cccc(Cl)c2)nc2ccccc12` [Compound K784-7215] were 60.7% and 39.3%.
Consider `CCOC(=O)c1sc(=S)n(-c2ccc(Br)cc2)c1N` [Compound R052-0946], for which, under “WT-TTR 7.2 μM”, the remaining activity at 100 µM worked out at 164% and the inhibition at 100 µM is 0%.
Taken in the same sequence, the figures for `Cc1cc(C(=O)Nc2cccnc2Cl)no1` [Compound C226-2576] were 130% and 0%.
Consider `O=C(O)C1CSC(c2ccc(Cl)c(Cl)c2)N1` (centres unmarked) [Compound K085-0014], for which, under “WT-TTR 7.2 μM”, the remaining activity at 100 µM stood at 102% and the inhibition at 100 µM amounted to 0%.
Taken in the same sequence, the figures for `Cc1nc2c(C(=O)NCc3ccc(F)cc3)cnn2c(O)c1Cc1ccccc1F` [Compound C218-0299] were 46.9% and 53.1%.
Taken in the same sequence, the figures for `COc1ccccc1NC(=S)N(CCCN1CCCCCC1)Cc1cccs1` [Compound C087-0823] were 104% and 0%.
Taken in the same sequence, the figures for `Fc1ccccc1NC(=S)N(CCCN1CCOCC1)Cc1cccnc1` [Compound C087-1168] were 99.3% and 0.7%.
For `O=C(c1cc(-c2ccc(Cl)s2)nc2ccccc12)N1CCOCC1` [Compound C136-0215], where the note is “WT-TTR 7.2 μM”, the remaining activity at 100 µM came to 156% and the inhibition at 100 µM came out at 0%.
As for `FC(F)(F)c1cccc(NC(=S)N(CCCN2CCCCC2)Cc2cccs2)c1` [Compound C087-1176], where the note is “WT-TTR 7.2 μM”, the remaining activity at 100 µM turned out to be 86.7% and the inhibition at 100 µM was found to be 13.3%.
Taken in the same sequence, the figures for `Cc1ccsc1/C=c1\sc2nc(-c3cccs3)nn2c1=O` [Compound 5629-0544] were 77.8% and 22.3%.
Taken in the same sequence, the figures for `O=C1OC(c2ccc(Cl)cc2Cl)=N/C1=C/c1ccc(Cl)c(Cl)c1` [Compound K088-1297] were 138% and 0%.
Consider `O=C1OC(c2ccc(Cl)cc2Cl)=N/C1=C\c1cccs1` [Compound K075-5819], for which, where the note is “WT-TTR 7.2 μM”, the remaining activity at 100 µM came to 136% and the inhibition at 100 µM came out at 0%.
For `COc1cc(CO)ccc1Oc1ccc([N+](=O)[O-])cc1` [Compound 15], the remaining activity at 50 µM under setting [1] worked out at 89.5%.
For `O=C(Nc1c2c(nn1-c1cccc(Cl)c1)C[S+]([O-])C2)c1ccccc1F` (centres unmarked) [Compound C077-0215], for the setting “WT-TTR 7.2 μM”, the remaining activity at 100 µM was 89.5% and the inhibition at 100 µM came out at 10.4%.
With `Clc1ccc2nc(-c3ccc(Cl)s3)c(NC3CCCCC3)n2c1` [Compound C273-0206], where the note is “WT-TTR 7.2 μM”, the remaining activity at 100 µM worked out at 138% and the inhibition at 100 µM was 0%.
Taken in the same sequence, the figures for `COc1ccc(NC(=S)N(CCCN2CCOCC2)Cc2cccs2)cc1` [Compound C087-0783] were 102% and 0%.
Taken in the same sequence, the figures for `Cc1ccc(C2NC(C(=O)O)CS2)cc1` (centres unmarked) [Compound K085-0026] were 14.3% and 85.7%.
Take `COc1cc(CO)ccc1Oc1ccc([N+](=O)[O-])cc1[N+](=O)[O-]` [Compound 19]: the remaining activity at 50 µM was 28%. Further, the IC50 (usually the concentration at which inhibition is half-maximal) (Table 3, WT-TTR 7.2 μM, read-out: IC50) turned out to be 20 µM.
For the compound `O=C(Nc1c2c(nn1-c1ccc(F)cc1)C[S+]([O-])C2)c1ccccc1F` (centres unmarked) [Compound C077-0216], where the note is “WT-TTR 7.2 μM”, the remaining activity at 100 µM was determined as 104% and the inhibition at 100 µM is 0%.
Taken in the same sequence, the figures for `CSC1=NSC2=NC(=O)/C(=C\c3ccc[nH]3)C(=N)N12` [Compound C146-0661] were 202% and 0%.
In the case of `O=C1CSC(c2ccc(Cl)cc2Cl)N1c1ccc(Cl)cc1` (centres unmarked) [Compound 8004-9890], under “WT-TTR 7.2 μM”, the remaining activity at 100 µM worked out at 20.3% and the inhibition at 100 µM was determined as 79.7%.
Taken in the same sequence, the figures for `O=[N+]([O-])c1ccc(Cl)cc1Sc1nc2ccccc2s1` [Compound 2369-0691] were 8.2% and 91.8%.
Take `COc1cc(/C=C2\SC(=S)N(c3ccc(O)cc3)C2=O)ccc1O` [Compound 2189-0711]: under “WT-TTR 7.2 μM”, the remaining activity at 100 µM is 230% and the inhibition at 100 µM was 0%.
Take `COC(=O)c1sc(=S)n(-c2ccc(Cl)c(Cl)c2)c1N` [Compound K286-4369]: where the note is “WT-TTR 7.2 μM”, the remaining activity at 100 µM is 84.5% and the inhibition at 100 µM is 15.6%.
`COc1cc(CCl)ccc1Oc1ccc([N+](=O)[O-])cc1[N+](=O)[O-]` [Compound 18]: the remaining activity at 50 µM under setting [1] turned out to be 79%.
For the compound `O=C(O)C1CSC(c2ccc(Cl)cc2Cl)N1` (centres unmarked) [Compound K085-0018], where the note is “WT-TTR 7.2 μM”, the remaining activity at 100 µM worked out at 22.3% and the inhibition at 100 µM came to 77.7%.
In the case of `O=Cc1ccc(Oc2ccccc2)c(O)c1` [Compound 2], the remaining activity at 50 µM is 112%.
Regarding `O=C(O)CCc1nc(-c2cccs2)no1` [Compound C066-2523], where the note is “WT-TTR 7.2 μM”, the remaining activity at 100 µM turned out to be 32.1% and the inhibition at 100 µM was determined as 67.9%.
Regarding `O=C(CSc1nccn1-c1cccc(Cl)c1)Nc1cccc2ccccc12` [Compound C262-0464], for the setting “WT-TTR 7.2 μM”, the remaining activity at 100 µM was determined as 122% and the inhibition at 100 µM came to 0%.
Take `Nc1nc(F)cc(Oc2ccc(F)cc2)n1` [Compound 1544-0071]: where the note is “WT-TTR 7.2 μM”, the remaining activity at 100 µM stood at 84% and the inhibition at 100 µM is 16%.
Taken in the same sequence, the figures for `NN1C(=O)/C(=C\c2ccc(Cl)cc2)NC1=S` [Compound C249-0056] were 131% and 0%.
Taken in the same sequence, the figures for `CCc1ccccc1NC(=S)N(CCN(C)C)Cc1cccs1` [Compound C087-0905] were 108% and 0%.
Taken in the same sequence, the figures for `CCN1C(=O)/C(=C/c2ccc(N(CC)CC)cc2O)SC1=S` [Compound 1996-0170] were 177% and 0%.
On to `O=C1CCCC2=C1C(c1cccc(O)c1)NC(=S)N2` (centres unmarked) [Compound C157-0040], for which, under “WT-TTR 7.2 μM”, the remaining activity at 100 µM stood at 106% and the inhibition at 100 µM came out at 0%.
In the case of `O=C1/C(=C\c2ccc(-c3ccc(Cl)cc3)o2)SC(=S)N1c1cccc(Cl)c1` [Compound 1934-0113], for the setting “WT-TTR 7.2 μM”, the remaining activity at 100 µM turned out to be 107% and the inhibition at 100 µM was determined as 0%.
For the compound `COc1cc(C=O)ccc1Oc1ccc([N+](=O)[O-])cc1[N+](=O)[O-]` [Compound 16], under setting [1], the remaining activity at 50 µM is 66%.
In the case of `Oc1ccc(-c2nnc(S)o2)cc1` [Compound 0350-0159], under “WT-TTR 7.2 μM”, the remaining activity at 100 µM amounted to 19.2% and the inhibition at 100 µM amounted to 80.8%.
As for `O=C(O)C1CSC(c2cccnc2)N1` (centres unmarked) [Compound K085-0021], under “WT-TTR 7.2 μM”, the remaining activity at 100 µM is 144% and the inhibition at 100 µM amounted to 0%.
Taken in the same sequence, the figures for `O=C(NC1CC1)c1cc(Sc2cccc(Cl)c2)nc2ccccc12` [Compound K784-7224] were 41.8% and 58.2%.
Taken in the same sequence, the figures for `Clc1ccccc1C1CC(c2cccs2)Nc2nnnn21` (centres unmarked) [Compound K832-3346] were 0% and 100%.

The values are drawn from US20100190832A1, “Mechanism-based inhibitors of transthyretin amyloidosis: studies with biphenyl ethers and structural templates” (NATIONAL INSTITUTE OF IMMUNOLOGY., priority 2008, published 2010).
